These results are taken from patent US10718760B2, “Method for drug binding analysis in a tissue sample” (Treat4Life AB, priority 2015, dated 2020).

The assay addresses BRAF target protein with V600E mutation (Homo sapiens, UniProt P15056, V600E). The assay is described as follows: MALDI-MSI displacement competitive binding on malignant melanoma tissue sections. As to conditions: for Isotope Signal: 1 hour, MS/MS m/z 389.1.

Chain of BRAF target protein with V600E mutation (P15056 whole entry V600E): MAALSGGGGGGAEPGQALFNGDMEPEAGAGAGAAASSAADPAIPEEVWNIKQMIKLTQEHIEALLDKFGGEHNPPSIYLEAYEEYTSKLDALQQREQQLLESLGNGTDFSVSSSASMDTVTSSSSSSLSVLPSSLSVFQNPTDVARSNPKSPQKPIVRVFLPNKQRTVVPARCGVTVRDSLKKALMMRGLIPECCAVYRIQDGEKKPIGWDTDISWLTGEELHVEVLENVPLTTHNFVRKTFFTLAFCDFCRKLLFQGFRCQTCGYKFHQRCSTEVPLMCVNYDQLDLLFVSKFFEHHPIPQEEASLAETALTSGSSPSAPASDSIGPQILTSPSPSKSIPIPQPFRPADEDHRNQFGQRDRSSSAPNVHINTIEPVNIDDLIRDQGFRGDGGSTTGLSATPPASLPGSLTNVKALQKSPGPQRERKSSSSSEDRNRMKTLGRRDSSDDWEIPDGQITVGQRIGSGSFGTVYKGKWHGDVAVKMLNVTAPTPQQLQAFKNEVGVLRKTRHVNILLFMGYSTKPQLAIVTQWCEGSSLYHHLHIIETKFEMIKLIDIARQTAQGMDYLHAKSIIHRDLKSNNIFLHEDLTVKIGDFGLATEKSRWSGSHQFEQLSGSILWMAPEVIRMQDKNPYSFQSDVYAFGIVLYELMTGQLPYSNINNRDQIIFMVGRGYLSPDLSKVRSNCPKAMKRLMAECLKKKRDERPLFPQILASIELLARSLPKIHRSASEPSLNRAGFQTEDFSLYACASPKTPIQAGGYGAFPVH
Procedure: (1) Making 10 micrometer sectioning of the frozen Human Malignant Melanoma tissues performed at −20° C. Thereafter, (2) sample preparation was preformed by slowly thawing and drying the tumor sections at room temperature. Then, the sections were immersed into methanol for 5 min and dried at room temperature. Correspondingly, frozen Human healthy tissue resected from lymphoid nodes were handled in the same way, and used as negative controls. (3) Drug incubation was performed for one hour by using unlabeled ligand, here Vemurafenib, at a concentration of 100 nM (nanomolar) to determine the binding of the ligand molecule to its protein target. […] During titration experiments, the concentration of stable isotope labeled Vemurafenib was 100 nM, 1 μM, 10 μM and 100 μM, (micro Molar), respectively. (4) After incubation, the sections were washed by PBS 3 times and then followed by washing with MilliQ water 3 consecutive times, and (5) mass spectra were obtained using a MALDI LTQ-Orbitrap XL instrument (Thermo Scientific, Germany), and compound signals were obtained by the orbitrap and ion trap. Image analysis was conducted using ImageQuest (Thermo Scientific, Germany). For histological analysis, both H&E staining and immuno-histochemical analysis using monoclonal antibody against BRAF V600E were conducted.
The frozen Human Malignant Melanoma tissues were resected from lymphoid nodes, constituting the tumor tissue. The tissue sections were sections with 10 μm (micro meter) slices thick by the use of a cryostat, performed at −20° C. After sectioning, the slices were slowly thawed and dried at room temperature. Then, the sections were immersed into methanol for 5 min and dried at room temperature. Correspondingly, frozen Human healthy tissue resected from lymphoid nodes was used as negative controls.
Incubation was made for one hour by using unlabeled Vemurafenib at a concentration of 100 nM (nanomolar) to determine the binding of the drug molecule to its protein target. […] The incubation time during competitive binding was 1 hour. […] During titration experiments, the concentration of stable isotope labeled Vemurafenib was 100 nM, 1 μM, 10 μM and 100 μM, (micro Molar), respectively.
After incubation, the sections were washed by PBS 3 times and then followed by washing with MilliQ water 3 consecutive times.
The mass spectra were obtained using a MALDI LTQ-Orbitrap XL instrument (Thermo Scientific, Germany). The compound signals were obtained by the orbitrap and ion trap. Image analysis was conducted using ImageQuest (Thermo Scientific, Germany). For histological analysis, both H&E staining and immuno-histochemical analysis using monoclonal antibody against BRAF V600E were conducted.
Binding intensity was calculated by identifying the area of biding from the mass spec image and the intensity read is calculated by the ImageQuest software of the instrument from the signal and background data.

Consider ^13C-Vemurafenib, for which the “Isotope Signal” value runs as follows: (0.1 μM ^13C-Vemurafenib co-incubated with 100 nM Vemurafenib) 326; (1 μM ^13C-Vemurafenib co-incubated with 100 nM Vemurafenib) 3233; (10 μM ^13C-Vemurafenib co-incubated with 100 nM Vemurafenib) 29870; (100 μM ^13C-Vemurafenib co-incubated with 100 nM Vemurafenib) 259400. Also, the “Competition with 100 nM Vemurafenib” value (1 μM ^13C-Vemurafenib co-administered, m/z 389.1, V600E patient tissue) is “outcompeting the 100 nM Vemurafenib”.
